Data as given in ChEMBL document CHEMBL4420076, “Amylin and calcitonin receptor agonist” (2017).
Numbered stars: 1 amine (or outer) side, 2 acyl side, 3 side chain; on linkers, the order of the positions; unused ones are H or OH. Square brackets hold non-standard residues; d marks the D form. Peptide text beside a SMILES is read from it. * marks the point of attachment. C20 diacid = O=C(O)CCCCCCCCCCCCCCCCCCC(=O)*; C16 diacid = O=C(O)CCCCCCCCCCCCCCC(=O)*; γGlu = O=C(O)[C@H](CCC(=O)[*:2])N[*:1]

Tests used:
[1] = molecular target: T1, Amylin receptor AMY3; CALCR/RAMP3 (Homo sapiens, UniProt O60896+P30988); test: Displacement of [125I]-labeled rat amylin from human amylin receptor expressed in BHK570 cell membranes co-expressing RAMP3 incubated for 120 mins by scintillation proximity assay
T1 sequence (P30988 whole entry): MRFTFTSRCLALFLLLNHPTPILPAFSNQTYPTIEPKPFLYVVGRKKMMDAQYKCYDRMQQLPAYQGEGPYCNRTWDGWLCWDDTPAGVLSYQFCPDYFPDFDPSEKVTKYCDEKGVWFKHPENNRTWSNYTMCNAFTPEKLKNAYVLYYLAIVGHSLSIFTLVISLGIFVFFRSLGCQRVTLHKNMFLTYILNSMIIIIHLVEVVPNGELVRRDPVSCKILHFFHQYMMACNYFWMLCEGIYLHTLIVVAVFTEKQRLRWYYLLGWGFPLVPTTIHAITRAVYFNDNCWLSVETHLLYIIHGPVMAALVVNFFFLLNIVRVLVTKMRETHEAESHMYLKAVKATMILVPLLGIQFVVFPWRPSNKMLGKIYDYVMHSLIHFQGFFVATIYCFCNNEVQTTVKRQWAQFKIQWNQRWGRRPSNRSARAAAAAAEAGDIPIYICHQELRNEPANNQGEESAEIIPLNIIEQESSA
T1 sequence (O60896 whole entry): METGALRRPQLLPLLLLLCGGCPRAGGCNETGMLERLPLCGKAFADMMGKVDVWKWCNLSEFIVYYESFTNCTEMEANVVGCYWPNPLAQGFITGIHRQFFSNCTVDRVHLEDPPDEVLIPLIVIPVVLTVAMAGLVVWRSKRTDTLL

[2] = molecular target: T1, Amylin receptor AMY3; CALCR/RAMP3; test: Agonist activity at human amylin receptor expressed in BHK570 cells co-expressing RAMP3 assessed as increase in intracellular cAMP concentration incubated for 3 hrs in presence of 10% FBS by CRE luciferase reporter gene assay; assay type: functional, cell-based
[3] = Stability in pH 7.5 buffer assessed as lag time for fibril formation at 1 uM by Thioflavin T based fluorescence assay; assay type: physicochemical; details: pH 7.5, 1 µM
[4] = Solubility in 100 mM bistrispropane buffer at pH 6.5 incubated for 18 hrs by UPLC analysis; assay type: physicochemical
[5] = Solubility in 100 mM bistrispropane buffer at pH 6.0 incubated for 18 hrs by UPLC analysis; assay type: physicochemical
[6] = Solubility in 100 mM glycylglycine buffer at pH 4.0 incubated for 18 hrs by UPLC analysis; assay type: physicochemical
Rattus norvegicus [7] = test: Reduction in food intake in Sprague-Dawley rat at 3 nmol/kg measured 0 to 24 hrs post dose relative to control; assay type: functional; set-up: scale not given: the % may be the effect or the level left
[8] = Solubility in 100 mM bistrispropane buffer at pH 8.0 incubated for 18 hrs by UPLC analysis; assay type: physicochemical
[9] = Solubility in 100 mM glycylglycine buffer at pH 3.0 incubated for 18 hrs by UPLC analysis; assay type: physicochemical
[10] = Solubility in 100 mM bistrispropane buffer at pH 7.5 incubated for 18 hrs by UPLC analysis; assay type: physicochemical
Calcitonin receptor [11] = molecular target: T2, Calcitonin receptor (Homo sapiens, UniProt P30988); test: Agonist activity at human calcitonin receptor expressed in BHK570 cells assessed as increase in intracellular cAMP concentration incubated for 3 hrs in presence of 10% FBS by CRE luciferase reporter gene assay; assay type: functional, cell-based
T2 sequence (P30988 whole entry): T1 sequence (P30988 whole entry)

[12] = molecular target: T3, Amylin receptor AMY3; CALCR/RAMP3 (Rattus norvegicus, UniProt P32214+Q9JJ73); test: Displacement of [125I]-labeled rat amylin from rat amylin receptor expressed in BHK tkts13 cell membranes co-expressing RAMP3 incubated for 120 mins by scintillation proximity assay
T3 sequence (P32214 whole entry): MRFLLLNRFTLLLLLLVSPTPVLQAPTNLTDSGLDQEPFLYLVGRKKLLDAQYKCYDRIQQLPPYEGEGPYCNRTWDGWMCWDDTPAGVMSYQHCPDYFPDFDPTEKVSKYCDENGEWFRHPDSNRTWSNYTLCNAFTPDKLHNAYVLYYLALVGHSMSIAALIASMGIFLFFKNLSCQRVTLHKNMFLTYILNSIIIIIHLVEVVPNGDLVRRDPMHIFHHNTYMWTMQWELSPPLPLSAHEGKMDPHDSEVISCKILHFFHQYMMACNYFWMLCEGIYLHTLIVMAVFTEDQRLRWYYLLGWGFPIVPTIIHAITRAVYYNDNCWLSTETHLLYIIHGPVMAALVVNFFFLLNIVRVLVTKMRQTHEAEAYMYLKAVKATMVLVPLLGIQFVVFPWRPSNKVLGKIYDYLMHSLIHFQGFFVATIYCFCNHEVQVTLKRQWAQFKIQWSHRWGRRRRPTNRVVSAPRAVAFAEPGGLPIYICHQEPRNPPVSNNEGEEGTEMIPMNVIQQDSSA
T3 sequence (Q9JJ73 whole entry): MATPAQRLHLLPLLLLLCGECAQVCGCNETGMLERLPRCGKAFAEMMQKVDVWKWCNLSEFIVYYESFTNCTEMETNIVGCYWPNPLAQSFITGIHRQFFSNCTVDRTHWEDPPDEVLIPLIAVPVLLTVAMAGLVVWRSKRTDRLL

[13] = Stability in pH 7.5 buffer assessed as compound recovery at 1 uM by Thioflavin T based fluorescence assay; assay type: physicochemical; details: read-out: Drug recovery
Calcitonin receptor [14] = molecular target: T2, Calcitonin receptor; test: Agonist activity at human calcitonin receptor expressed in BHK570 cells assessed as increase in intracellular cAMP concentration incubated for 3 hrs in absence of albumin by CRE luciferase reporter gene assay; assay type: functional, cell-based
Rattus norvegicus [15] = test: Reduction in food intake in Sprague-Dawley rat at 3 nmol/kg measured 24 to 48 hrs post dose relative to control; assay type: functional; set-up: scale not given: the % may be the effect or the level left
[16] = Solubility in 100 mM bistrispropane buffer at pH 7.0 incubated for 18 hrs by UPLC analysis; assay type: physicochemical
[17] = Solubility in 100 mM glycylglycine buffer at pH 5.0 incubated for 18 hrs by UPLC analysis; assay type: physicochemical
[18] = molecular target: T1, Amylin receptor AMY3; CALCR/RAMP3; test: Agonist activity at human amylin receptor expressed in BHK570 cells co-expressing RAMP3 assessed as increase in intracellular cAMP concentration incubated for 3 hrs in absence of albumin by CRE luciferase reporter gene assay; assay type: functional, cell-based
Calcitonin receptor [19] = molecular target: T2, Calcitonin receptor; test: Displacement of [125I]-labeled human calcitonin from human calcitonin receptor expressed in BHK tkts13 cell membranes incubated for 1 hr by scintillation proximity assay

IC50 [1]	EC50 [2]	Time [3]	solubility at 18 h [4]	solubility at 18 h [5]	solubility at 18 h [6]	solubility at 18 h [8]	solubility at 18 h [9]	solubility at 18 h [10]	EC50 (Calcitonin receptor [11])	IC50 [12]	remaining at 1 µM [13]	EC50 (Calcitonin receptor [14])	solubility at 18 h [16]	solubility at 18 h [17]	EC50 [18]	IC50 (Calcitonin receptor [19])	Structure (SMILES)	Activity (Rattus norvegicus [7])	Activity (Rattus norvegicus [15])
166 pM	123 pM	> 45 h	≥ 200 µM	≥ 200 µM	≥ 200 µM	≥ 200 µM	≥ 200 µM	≥ 200 µM	68 pM	29 pM	100%	52 pM	≥ 200 µM				CC(C)C[C@H](NC(=O)CNC(=O)[C@H](CO)NC(=O)[C@H](C)NC(=O)COCCOCCNC(=O)COCCOCCNC(=O)CC[C@H](NC(=O)CCCCCCCCCCCCCCCCCCC(=O)O)C(=O)O)C(=O)N[C@@H](CO)C(=O)N[C@H](C(=O)N[C@@H](C)C(=O)N[C@H](C(=O)N[C@@H](CC(C)C)C(=O)NCC(=O)N[C@@H](CCCNC(=N)N)C(=O)N[C@@H](CC(C)C)C(=O)N[C@@H](CO)C(=O)N[C@@H](CCC(N)=O)C(=O)N[C@@H](CCC(=O)O)C(=O)N[C@@H](CC(C)C)C(=O)N[C@@H](Cc1cnc[nH]1)C(=O)N[C@@H](CCC(=O)O)C(=O)N[C@@H](CC(C)C)C(=O)N[C@@H](CCC(N)=O)C(=O)N[C@H](C(=O)N[C@@H](Cc1ccc(O)cc1)C(=O)N1CCC[C@H]1C(=O)N[C@@H](CCCNC(=N)N)C(=O)N[C@H](C(=O)N[C@@H](CCC(=O)O)C(=O)N[C@H](C(=O)NCC(=O)N[C@@H](CO)C(=O)NCC(=O)N[C@H](C(=O)N[C@@H](Cc1ccc(O)cc1)C(N)=O)[C@@H](C)O)[C@@H](C)O)[C@@H](C)O)[C@@H](C)O)C(C)C)[C@@H](C)O	22%	19%
15 pM	4 pM		≥ 200 µM	≥ 200 µM	≥ 200 µM	≥ 200 µM	≥ 200 µM	≥ 200 µM	3 pM	64 pM			≥ 200 µM	≥ 200 µM	10 pM		CC(C)C[C@H](NC(=O)[C@H](C)NC(=O)[C@H](C)NC(=O)[C@@H](NC(=O)[C@H](CO)NC(=O)[C@H](CC(C)C)NC(=O)[C@H](CCC(=O)O)NC(=O)[C@H](CO)NC(=O)[C@H](C)NC(=O)CCCCCCCCCCCCCCC(=O)O)[C@@H](C)O)C(=O)NCC(=O)N[C@@H](CCCNC(=N)N)C(=O)N[C@@H](CC(C)C)C(=O)N[C@@H](CO)C(=O)N[C@@H](C)C(=O)N[C@@H](CCC(=O)O)C(=O)N[C@@H](CC(C)C)C(=O)N[C@@H](Cc1cnc[nH]1)C(=O)N[C@@H](CCC(=O)O)C(=O)N[C@@H](CC(C)C)C(=O)N[C@@H](C)C(=O)N[C@H](C(=O)N[C@@H](CC(C)C)C(=O)N1CCC[C@H]1C(=O)N[C@@H](CCCNC(=N)N)C(=O)N[C@H](C(=O)N[C@@H](CCC(=O)O)C(=O)N[C@H](C(=O)NCC(=O)N[C@@H](CO)C(=O)NCC(=O)N[C@@H](CO)C(=O)N1CCC[C@H]1C(N)=O)[C@@H](C)O)[C@@H](C)O)[C@@H](C)O ({C16 diacid}-ASELSTAALGRLSAELHELATLPRTETGSGSP-NH2)	28%	-2%
29 pM	94 pM		≥ 200 µM	≥ 200 µM	≥ 200 µM	≥ 200 µM	≥ 200 µM	≥ 200 µM	23 pM			14 pM	≥ 200 µM	≥ 200 µM	20 pM	22 pM	CC(C)C[C@H](NC(=O)[C@H](C)NC(=O)[C@H](C)NC(=O)[C@@H](NC(=O)[C@H](CO)NC(=O)[C@H](CC(C)C)NC(=O)[C@H](CCC(=O)O)NC(=O)[C@H](CO)NC(=O)[C@H](C)NC(=O)CC[C@H](NC(=O)CCCCCCCCCCCCCCCCCCC(=O)O)C(=O)O)[C@@H](C)O)C(=O)NCC(=O)N[C@@H](CCCNC(=N)N)C(=O)N[C@@H](CC(C)C)C(=O)N[C@@H](CO)C(=O)N[C@H](CCC(=O)O)C(=O)N[C@@H](CCC(=O)O)C(=O)N[C@@H](CC(C)C)C(=O)N[C@@H](Cc1cnc[nH]1)C(=O)N[C@@H](CCC(=O)O)C(=O)N[C@@H](CC(C)C)C(=O)N[C@@H](C)C(=O)N[C@H](C(=O)N[C@@H](CC(C)C)C(=O)N1CCC[C@H]1C(=O)N[C@@H](CCCNC(=N)N)C(=O)N[C@H](C(=O)N[C@@H](CCC(=O)O)C(=O)N[C@H](C(=O)NCC(=O)N[C@@H](CO)C(=O)NCC(=O)N[C@@H](CO)C(=O)N1CCC[C@H]1C(N)=O)[C@@H](C)O)[C@@H](C)O)[C@@H](C)O ({C20 diacid-γGlu}-ASELSTAALGRLS[dE]ELHELATLPRTETGSGSP-NH2)		
159 pM	92 pM		≥ 200 µM	≥ 200 µM	≥ 200 µM	≥ 200 µM	≥ 200 µM	≥ 200 µM	40 pM	45 pM		23 pM	≥ 200 µM		20 pM		CC(C)C[C@H](NC(=O)[C@H](CCCNC(=N)N)NC(=O)CNC(=O)[C@H](CC(C)C)NC(=O)[C@@H](NC(=O)[C@H](C)NC(=O)[C@@H](NC(=O)[C@H](CO)NC(=O)[C@H](CC(C)C)NC(=O)[C@H](CCC(=O)O)NC(=O)[C@H](CO)NC(=O)[C@H](C)NC(=O)CC[C@H](NC(=O)CCCCCCCCCCCCCCCCCCC(=O)O)C(=O)O)[C@@H](C)O)[C@@H](C)O)C(=O)N[C@@H](CO)C(=O)N[C@@H](C)C(=O)N[C@@H](CCC(=O)O)C(=O)N[C@@H](CC(C)C)C(=O)N[C@@H](Cc1cnc[nH]1)C(=O)N[C@@H](CCC(=O)O)C(=O)N[C@@H](CC(C)C)C(=O)N[C@@H](CO)C(=O)N[C@H](C(=O)N[C@@H](Cc1ccc(O)cc1)C(=O)N1CCC[C@H]1C(=O)N[C@@H](CCCNC(=N)N)C(=O)N[C@H](C(=O)N[C@@H](CCC(=O)O)C(=O)N[C@H](C(=O)NCC(=O)N[C@@H](CO)C(=O)NCC(=O)N[C@@H](CO)C(=O)N[C@@H](Cc1ccc(O)cc1)C(N)=O)[C@@H](C)O)[C@@H](C)O)[C@@H](C)O ({C20 diacid-γGlu}-ASELSTATLGRLSAELHELSTYPRTETGSGSY-NH2)	46%	68%
